In test [1] the target is T1, thrombin (Homo sapiens, UniProt P00734). The test can be described thus: Thrombin-inhibitory activity in plasma samples (ecarin-activated). It counts as biochemical. The following applies: citrate plasma, ecarin activation, fluorogenic thrombin substrate; read at about 70% of maximum signal (about 12 min); in some cases means. The method, then: To determine the inhibition of thrombin in plasma samples, plasma prothrombinase is activated by ecarin. Thrombin activity and/or its inhibition by potential inhibitors is/are then measured fluorescently by addition of a substrate.
The substances to be tested are dissolved in various concentrations in dimethyl sulphoxide and diluted with water. In white 96-well flat-bottomed plates, 20 μl of substance dilution are mixed with 20 μl of ecarin solution (ecarin reagent, from Sigma E-0504, final concentration 20 mU per reaction) in Ca buffer (200 mM Hepes+560 mM sodium chloride+10 mM calcium chloride+0.4% PEG) or with 20 μl of Ca buffer (as unstimulated control). Furthermore, 20 μl of fluorogenic thrombin substrate (from Bachem 1-1120, final concentration 50 μmol/l) and 20 μl of citrate plasma (from Octapharma) are added, and the mixture is homogenized well. The plate is measured in a SpectraFluorplus Reader using a 360 nm excitation filter and a 465 nm emission filter every minute over 20 minutes. […] Representative activity data from this test are given in Table 2 below (in some cases as means of individual determinations): […]

For test [2], the target named is T1, thrombin. Put plainly: Measurement of the thrombin inhibition in buffer. The class given is biochemical. The following applies: human thrombin 0.06 nmol/l in Tris buffer pH 7.4, 22° C., substrate Boc-Asp(OBzl)-Pro-Arg-AMC; in some cases means of individual determinations. As for the experimental part:
To determine the thrombin inhibition of the substances listed above, a biochemical test system is constructed in which the conversion of a thrombin substrate is used for determining the enzymatic activity of human thrombin. Here, thrombin cleaves aminomethylcoumarin, which is measured fluorescently, from the peptic substrate. The determinations are carried out in microtitre plates.
Substances to be tested are dissolved in various concentrations in dimethyl sulphoxide and incubated for 15 min with human thrombin (0.06 nmol/l dissolved in 50 mmol/l of Tris buffer [C,C,C-tris(hydroxymethyl)aminomethane], 100 mmol/l of sodium chloride, 0.1% BSA [bovine serum albumin], pH 7.4) at 22° C. The substrate (5 μmol/l Boc-Asp(OBzl)-Pro-Arg-AMC from Bachem) is then added. After 30 min of incubation, the sample is excited at a wavelength of 360 nm and the emission is measured at 460 nm. The measured emissions of the test mixtures with test substance are compared to the control mixtures without test substance (only dimethyl sulphoxide instead of test substance in dimethyl sulphoxide) and IC50 values are calculated from the concentration/activity relationships. Representative activity data from this test are given in Table 1 below (in some cases as means of individual determinations): […]

Consider 18 compounds from US20160108039A1, “TRIAZOLOPYRIDINES AS THROMBIN INHIBITORS FOR THE TREATMENT OF THROMBOEMBOLIC DISEASES” (BAYER PHARMA AKTIENGESELLSCHAFT, priority 2013, published 2016).

The IC50 is the concentration at which inhibition is half-maximal.

`COc1cc(C(=O)N2CC(C)OCC2C2CC(O)C2)cn2nc(NCc3cccc(Cl)c3)nc12` (single isomer, unassigned) [Example 4, {2-[(3-Chlorobenzyl)amino]-8-methoxy[1,2,4]triazolo[1,5-a]pyridin-6-yl}[5-(3-hydroxycyclobutyl)-2-methylmorpholin-4-yl]methanone]: the half-maximal inhibitory concentration (IC50) stood at 23 nM in test [1] and 9.4 nM in test [2].

In the case of `COc1cc(C(=O)N2CC(C)(CCO)OC[C@H]2C)cn2nc(NCc3cccc(Cl)c3)nc12` (single isomer, unassigned) [Example 6], the half-maximal inhibitory concentration (IC50) in test [1] was 25 nM; in test [2] it was 8.7 nM.

Take `COc1cc(C(=O)N2CC(C)(C)OCC2(C)CO)cn2nc(NCc3cccc(Cl)c3)nc12` (single isomer, unassigned) [Example 9, {2-[(3-Chlorobenzyl)amino]-8-methoxy[1,2,4]triazolo[1,5-a]pyridin-6-yl}[5-(hydroxymethyl)-2,2,5-trimethylmorpholin-4-yl]methanone]: the IC50 stood at 79 nM in test [1] and 55 nM in test [2].

`COc1cc(C(=O)N2CC(C)(C)OCC2(C)CO)cn2nc(NCc3cccc(Cl)c3)nc12` (single isomer, unassigned) [Example 10, {2-[(3-Chlorobenzyl)amino]-8-methoxy[1,2,4]triazolo[1,5-a]pyridin-6-yl}[5-(hydroxymethyl)-2,2,5-trimethylmorpholin-4-yl]methanone]: the IC50 in test [1] was 41 nM; in test [2], 39 nM.

Take `COc1cc(C(=O)N2CC(C)(C)OCC2CF)cn2nc(NCc3cccc(Cl)c3)nc12` (single isomer, unassigned) [Example 14, {2-[(3-Chlorobenzyl)amino]-8-methoxy[1,2,4]triazolo[1,5-a]pyridin-6-yl}[5-(fluoromethyl)-2,2-dimethylmorpholin-4-yl]methanone]: the IC50 in test [1] turned out to be 57 nM; in test [2] it was 24 nM.

As to `COc1cc(C(=O)N2CC(C)OCC2CCO)cn2nc(NCc3cccc(Cl)c3)nc12` (single isomer, unassigned) [Example 16, {2-[(3-Chlorobenzyl)amino]-8-methoxy[1,2,4]triazolo[1,5-a]pyridin-6-yl}[5-(2-hydroxyethyl)-2-methylmorpholin-4-yl]methanone], the IC50 in test [1] is 77 nM; in test [2] it was 52 nM.

As to `COc1cc(C(=O)N2CC(C)OCC2CCO)cn2nc(NCc3cccc(Cl)c3)nc12` (single isomer, unassigned) [Example 17, {2-[(3-Chlorobenzyl)amino]-8-methoxy[1,2,4]triazolo[1,5-a]pyridin-6-yl}[5-(2-hydroxyethyl)-2-methylmorpholin-4-yl]methanone], the half-inhibitory concentration (IC50) in test [1] is 119 nM; in test [2] it was 95 nM.

For `COc1cc(C(=O)N2CC(C)OCC2CCO)cn2nc(NC(CF)c3cccc(Cl)c3)nc12` (single isomer, unassigned) [Example 18, (2-{[1-(3-Chlorophenyl)-2-fluoroethyl]amino}-8-methoxy[1,2,4]triazolo[1,5-a]pyridin-6-yl) [5-(2-hydroxyethyl)-2-methylmorpholin-4-yl]methanone], the half-maximal inhibitory concentration (IC50) in test [1] was found to be 15 nM; in test [2] it was 27 nM.

On to `COc1cc(C(=O)N2CC(C)OCC2CCO)cn2nc(NC(CF)c3cccc(Cl)c3)nc12` (single isomer, unassigned) [Example 19, (2-{[1-(3-Chlorophenyl)-2-fluoroethyl]amino}-8-methoxy[1,2,4]triazolo[1,5-a]pyridin-6-yl) [5-(2-hydroxyethyl)-2-methylmorpholin-4-yl]methanone], for which the IC50 in test [1] stood at 10 nM; in test [2], 11 nM.

As for `COc1cc(C(=O)N2CC(C)OCC23CC(O)C3)cn2nc(NCc3cccc(Cl)c3)nc12` (single isomer, unassigned) [Example 20, {2-[(3-Chlorobenzyl)amino]-8-methoxy[1,2,4]triazolo[1,5-a]pyridin-6-yl}[(cis)-2-hydroxy-7-methyl-8-oxa-5-azaspiro[3.5]non-5-yl]methanone], the values for the concentration for half-maximal inhibition (IC50) in test [1] and in test [2] were 70 nM and 35 nM, respectively.

For `COc1cc(C(=O)N2CC(C)OCC23CC(O)C3)cn2nc(NCc3cccc(Cl)c3)nc12` (single isomer, unassigned) [Example 21, {2-[(3-Chlorobenzyl)amino]-8-methoxy[1,2,4]triazolo[1,5-a]pyridin-6-yl}[(trans)-2-hydroxy-7-methyl-8-oxa-5-azaspiro[3.5]non-5-yl]methanone], the IC50 in test [1] was determined as 67 nM; in test [2] it was 43 nM.

As for `COc1cc(C(=O)N2CC(C)OCC23CC(O)C3)cn2nc(NC(CF)c3cccc(Cl)c3)nc12` (single isomer, unassigned) [Example 22, (2-{[1-(3-Chlorophenyl)-2-fluoroethyl]amino}-8-methoxy[1,2,4]triazolo[1,5-a]pyridin-6-yl)[(cis)-2-hydroxy-7-methyl-8-oxa-5-azaspiro[3.5]non-5-yl]methanone], the concentration for half-maximal inhibition (IC50) in test [1] was determined as 86 nM; in test [2], 26 nM.

On to `COc1cc(C(=O)N2CC(C)OCC23CC(O)C3)cn2nc(NC(CF)c3cccc(Cl)c3)nc12` (single isomer, unassigned) [Example 23, (2-{[1-(3-Chlorophenyl)-2-fluoroethyl]amino}-8-methoxy[1,2,4]triazolo[1,5-a]pyridin-6-yl)[(cis)-2-hydroxy-7-methyl-8-oxa-5-azaspiro[3.5]non-5-yl]methanone], for which the half-inhibitory concentration (IC50) is 34 nM in test [1] and 29 nM in test [2].

Regarding `COc1cc(C(=O)N2CC(C)OCC23CC(O)C3)cn2nc(NC(CF)c3cccc(Cl)c3)nc12` (single isomer, unassigned) [Example 24, (2-{[1-(3-Chlorophenyl)-2-fluoroethyl]amino}-8-methoxy[1,2,4]triazolo[1,5-a]pyridin-6-yl) [(trans)-2-hydroxy-7-methyl-8-oxa-5-azaspiro[3.5]non-5-yl]methanone], the results for the half-inhibitory concentration (IC50) in test [1] and in test [2] were 19 nM and 9.9 nM, respectively.

In the case of `COc1cc(C(=O)N2CC(C)OCC23CC(O)C3)cn2nc(NC(CF)c3cccc(Cl)c3)nc12` (single isomer, unassigned) [Example 25, (2-{[1-(3-Chlorophenyl)-2-fluoroethyl]amino}-8-methoxy[1,2,4]triazolo[1,5-a]pyridin-6-yl) [(trans)-2-hydroxy-7-methyl-8-oxa-5-azaspiro[3.5]non-5-yl]methanone], the concentration for half-maximal inhibition (IC50) in test [1] came out at 55 nM; in test [2] it was 28 nM.

In the case of `COc1cc(C(=O)N2CC(C)OCC2(C)C)cn2nc(NCc3cccc(Cl)c3)nc12` (single isomer, unassigned) [Example 27], the values for the IC50 in test [1] and in test [2] were 56 nM and 62 nM, respectively.

Regarding `COc1cc(C(=O)N2CC(C)OCC2(C)CO)cn2nc(NCc3cccc(Cl)c3)nc12` (single isomer, unassigned) [Example 29, {2-[(3-Chlorobenzyl)amino]-8-methoxy[1,2,4]triazolo[1,5-a]pyridin-6-yl}[5-(hydroxymethyl)-2,5-dimethylmorpholin-4-yl]methanone], the IC50 in test [1] amounted to 67 nM; in test [2], 54 nM.

`COc1cc(C(=O)N2CC(C)OCC2(C)CO)cn2nc(NCc3cccc(Cl)c3)nc12` (single isomer, unassigned) [Example 30, {2-[(3-Chlorobenzyl)amino]-8-methoxy[1,2,4]triazolo[1,5-a]pyridin-6-yl}[5-(hydroxymethyl)-2,5-dimethylmorpholin-4-yl]methanone]: the half-maximal inhibitory concentration (IC50) was determined as 51 nM in test [1] and 45 nM in test [2].
